Assay results: patent US20090068290A1, “BIFEPRUNOX DOSES FOR TREATING SCHIZOPHRENIA” (priority 2006, published 2009)

Tests used:
[1] = test system: adult subjects with schizophrenia; assay: PANSS positive symptom subscale score, Clinical Study Two; format: in vivo, human; conditions: LOCF, ITT; for PANSS Positive Symptom Subscale Score, Trt Effect (bifeprunox—placebo): ANCOVA
Method: Rating scale assessments were performed weekly, except for week 5, to measure the change from baseline to endpoint of the PANSS total score. Other assessments included: PANSS positive symptom subscale score, PANSS negative symptom subscale score, PANSS general pschopathology subscale score, BPRS total score, BPRS psychosis score, the CGI-S score, the CGI-I score, responder rates based on the PANSS total score, and the Calgary Depression Scale for Schizophrenia (CDSS). […]
Subjects who completed this study had the option to continue in the long-term. […] Risperidone-treated subjects were titrated from 2 mg to 6 mg daily over a three-day period and were subsequently maintained at 6 mg/day for the remainder of the treatment period. […] Blood samples were also obtained at Screening/Baseline, Week 3, and Week 6 for clinical laboratory assessments.

[2] = Pooled metabolic analysis, 6-week studies: body weight; conditions: for ≧7% weight decrease, (%) / ≧7% weight increase, (%) / Weight, Mean (SD) change from baseline: 6-week placebo controlled trials, BX total doses, RISP 6 mg, OLZ 15 mg, HAL 10 mg; for Weight, Mean (SD) change from baseline: endpoint
Source text: OBJECTIVE: To examine the metabolic effects of bifeprunox in patients with acute and stable schizophrenia.
METHODS: Metabolic data was compiled from one 6-month and four 6-week studies (i.e., a treatment period) of bifeprunox in patients with stable and acute schizophrenia, respectively. In the 6-month study, patients received bifeprunox (n=331) or placebo (PBO) (n=166). […] Metabolic evaluations included body weight, body mass index (BMI), plasma glucose and lipid profiles. Fasting glucose and lipid values were assessed in one 6-week study and in the 6-month study. Triglyceride:HDL ratio (TG:HDL) was calculated as a marker of insulin resistance. No statistical analyses were performed; only descriptive statistics are presented.

[3] = Body weight, Clinical Study Two; format: in vivo, human
[4] = Bifeprunox 30 mg, Week 6/Endpoint
[5] = Bifeprunox 40 mg, Week 6/Endpoint

O=c1[nH]c2cccc(N3CCN(Cc4cccc(-c5ccccc5)c4)CC3)c2o1 [Bifeprunox, 7-[4-([1,1′-biphenyl]-3-ylmethyl)-1-piperazinyl]-2(3H)-benzoxazolone]
Change from Baseline in PANSS Positive Symptom Subscale Score, Median ([1]; Bifeprunox 30 mg, Week 3): −4 | Change from Baseline in PANSS Positive Symptom Subscale Score, Mean (SD) ([1]; Bifeprunox 30 mg, Week 4): −4.4 (5.9) | Change from Baseline in PANSS Positive Symptom Subscale Score, Median ([1]; Bifeprunox 30 mg, Week 4): −4 | Change from Baseline in PANSS Positive Symptom Subscale Score, Mean (SD) [1, 4]: −4.5 (6.6) | Change from Baseline in PANSS Positive Symptom Subscale Score, Median [1, 4]: −4 | PANSS Positive Symptom Subscale Score, Trt Effect (bifeprunox—placebo) [1, 4]: −1.9 | Change from Baseline in PANSS Positive Symptom Subscale Score, Mean (SD) ([1]; Bifeprunox 40 mg, Week 1): −2.8 (3.9) | Change from Baseline in PANSS Positive Symptom Subscale Score, Median ([1]; Bifeprunox 40 mg, Week 1): −2 | Change from Baseline in PANSS Positive Symptom Subscale Score, Mean (SD) ([1]; Bifeprunox 40 mg, Week 2): −3.6 (5.7) | Change from Baseline in PANSS Positive Symptom Subscale Score, Median ([1]; Bifeprunox 40 mg, Week 2): −3 | Change from Baseline in PANSS Positive Symptom Subscale Score, Mean (SD) ([1]; Bifeprunox 40 mg, Week 3): −4.1 (6.3) | Change from Baseline in PANSS Positive Symptom Subscale Score, Median ([1]; Bifeprunox 40 mg, Week 3): −4 | Change from Baseline in PANSS Positive Symptom Subscale Score, Mean (SD) ([1]; Bifeprunox 40 mg, Week 4): −3.7 (6.6) | Change from Baseline in PANSS Positive Symptom Subscale Score, Median ([1]; Bifeprunox 40 mg, Week 4): −3 | Change from Baseline in PANSS Positive Symptom Subscale Score, Mean (SD) [1, 5]: −4.2 (6.9) | Change from Baseline in PANSS Positive Symptom Subscale Score, Median [1, 5]: −4 | PANSS Positive Symptom Subscale Score, Trt Effect (bifeprunox—placebo) [1, 5]: −1.7 | ≧7% weight decrease, (%) ([2]; baseline BMI 18.5-25 kg/m^2): 5.4% | ≧7% weight increase, (%) ([2]; baseline BMI 18.5-25 kg/m^2): 2.4% | ≧7% weight decrease, (%) ([2]; baseline BMI <18.5 kg/m^2): 3.7% | ≧7% weight increase, (%) ([2]; baseline BMI <18.5 kg/m^2): 3.7% | ≧7% weight decrease, (%) ([2]; baseline BMI >25-30 kg/m^2): 8.8% | ≧7% weight increase, (%) ([2]; baseline BMI >25-30 kg/m^2): 1.8% | ≧7% weight decrease, (%) ([2]; baseline BMI >30 kg/m^2): 5.8% | ≧7% weight increase, (%) ([2]; baseline BMI >30 kg/m^2): 1.4% | ≧7% weight decrease, (%) ([2]; baseline BMI All): 6.2% | ≧7% weight increase, (%) ([2]; baseline BMI All): 2.1% | Weight, Mean (SD) change from baseline ([2]; baseline BMI 18.5-25 kg/m^2): −0.4 (2.6) kg | Weight, Mean (SD) change from baseline ([2]; baseline BMI <18.5 kg/m^2): 0.0 (1.7) kg | Weight, Mean (SD) change from baseline ([2]; baseline BMI >25-30 kg/m^2): −0.9 (3.2) kg | Weight, Mean (SD) change from baseline ([2]; baseline BMI >30 kg/m^2): −1.4 (3.9) kg | Weight, Mean (SD) change from baseline ([2]; baseline BMI All): −0. (3.2) kg | mean weight decrease ([2]; 6-week studies, pooled): 0.8 kg | mean weight change ([2]; 6-week studies, pooled (overall summary)): -0.8 kg | mean change in weight at endpoint ([2]; 6-week studies, patients with nausea or vomiting): -1.7 kg | mean change in weight at endpoint ([2]; 6-week studies, patients without nausea or vomiting): -0.4 kg | Weight, Baseline Mean of subjects with Endpoint change ([3]; Bifeprunox 30 mg): 168.1 lbs | Weight, Baseline Mean of subjects with Week 6 change ([3]; Bifeprunox 30 mg): 166.1 lbs | Weight, Baseline, Max ([3]; Bifeprunox 30 mg): 360 lbs | Weight, Baseline, Mean (SD) ([3]; Bifeprunox 30 mg): 169.2 (55.3) lbs | Weight, Baseline, Median ([3]; Bifeprunox 30 mg): 161 lbs | Weight, Baseline, Min ([3]; Bifeprunox 30 mg): 84 lbs | Weight, Change from Baseline at Endpoint, Max ([3]; Bifeprunox 30 mg): 9 lbs | Weight, Change from Baseline at Endpoint, Mean (SD) ([3]; Bifeprunox 30 mg): −2.2 (6.7) lbs | Weight, Change from Baseline at Endpoint, Median ([3]; Bifeprunox 30 mg): 0 lbs | Weight, Change from Baseline at Endpoint, Min ([3]; Bifeprunox 30 mg): −32 lbs | Weight, Change from Baseline at Week 6, Max ([3]; Bifeprunox 30 mg): 8 lbs | Weight, Change from Baseline at Week 6, Mean (SD) ([3]; Bifeprunox 30 mg): −4.3 (8.2) lbs | Weight, Change from Baseline at Week 6, Median ([3]; Bifeprunox 30 mg): −2 lbs | Weight, Change from Baseline at Week 6, Min ([3]; Bifeprunox 30 mg): −32 lbs | mean weight change at Endpoint ([3]; Bifeprunox 30 mg): −2.2 lbs | Weight, Baseline Mean of subjects with Endpoint change ([3]; Bifeprunox 40 mg): 160.7 lbs | Weight, Baseline Mean of subjects with Week 6 change ([3]; Bifeprunox 40 mg): 162.0 lbs | Weight, Baseline, Max ([3]; Bifeprunox 40 mg): 378 lbs | Weight, Baseline, Mean (SD) ([3]; Bifeprunox 40 mg): 161.9 (46.6) lbs | Weight, Baseline, Median ([3]; Bifeprunox 40 mg): 155 lbs | Weight, Baseline, Min ([3]; Bifeprunox 40 mg): 84 lbs | Weight, Change from Baseline at Endpoint, Max ([3]; Bifeprunox 40 mg): 15 lbs | Weight, Change from Baseline at Endpoint, Mean (SD) ([3]; Bifeprunox 40 mg): −1.9 (5.8) lbs | Weight, Change from Baseline at Endpoint, Median ([3]; Bifeprunox 40 mg): −1 lbs | Weight, Change from Baseline at Endpoint, Min ([3]; Bifeprunox 40 mg): −18 lbs | Weight, Change from Baseline at Week 6, Max ([3]; Bifeprunox 40 mg): 10 lbs | Weight, Change from Baseline at Week 6, Mean (SD) ([3]; Bifeprunox 40 mg): −3.1 (5.8) lbs | Weight, Change from Baseline at Week 6, Median ([3]; Bifeprunox 40 mg): −2 lbs | body weight (in words) ([3]; bifeprunox 30, 40 mg, 6 weeks): Small comparable decreases in body weight
